Test results as given in paper PMC8693618 (Bioorganic & medicinal chemistry, 2021).
Read-outs that look alike come from different tables or passages of the source. One block for each compound: values may come before it.

Tests used:
human PANK3 = human PANK3 (Homo sapiens, UniProt Q9H999); details: tested up to 10 μM
[1] = PAMPA passive permeability; format: in vitro ADME
[2] = passive permeability; previously determined ref 8; cited from earlier work
Caco2 = details: previously determined ref 8; cited from earlier work
Plasma Protein [3] = details: mouse; previously determined ref 8; cited from earlier work
Plasma Protein [4] = details: rat; previously determined ref 8; cited from earlier work
Plasma Protein [5] = details: human; previously determined ref 8; cited from earlier work
[6] = mouse, rat, and human plasma; previously determined ref 8; cited from earlier work

human PANK3, sequence (Q9H999 whole entry): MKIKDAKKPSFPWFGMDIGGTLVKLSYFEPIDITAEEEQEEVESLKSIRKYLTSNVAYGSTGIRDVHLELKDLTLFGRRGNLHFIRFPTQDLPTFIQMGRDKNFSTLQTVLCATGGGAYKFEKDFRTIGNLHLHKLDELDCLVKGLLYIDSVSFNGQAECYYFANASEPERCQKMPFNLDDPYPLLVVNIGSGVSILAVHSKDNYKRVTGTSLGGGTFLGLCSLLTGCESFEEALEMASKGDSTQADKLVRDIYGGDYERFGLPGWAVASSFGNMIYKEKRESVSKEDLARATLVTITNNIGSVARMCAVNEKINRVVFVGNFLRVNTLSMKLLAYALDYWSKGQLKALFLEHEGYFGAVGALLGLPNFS

Compound: CCCCc1ccc(NC(=O)N2CCN(c3ccc(C#N)cn3)CC2)cc1 [Compound 8, N-(4-butylphenyl)-4-(5-cyanopyridin-2-yl)piperazine-1-carboxamide]
PANK3 inhibitory activity in words (human PANK3): did not show activity

Compound: CC(C)c1ccc(CC(=O)N2CCN(c3ccc(C#N)nn3)CC2)cc1 [Compound 57, 6-(4-(2-(4-isopropylphenyl)acetyl)piperazin-1-yl) pyridazine-3-carbonitrile]
PAMPA [2]: 413 1 × 10^−6 cm/s
Caco2 Permeability A/B (Caco2): 30.2 ×10⁻⁶ cm/s
Plasma Protein Binding (Plasma Protein [3]): 92%
Plasma Protein Binding (Plasma Protein [4]): 91%
Plasma Protein Binding (Plasma Protein [5]): 93%
Plasma Stability T1/2 [6]: >48 h

Compound: CC(C)c1ccc(NC(=O)N2CCN(c3ccc(C#N)nn3)CC2)cc1 [Compound 56, 4-(6-cyanopyridazin-3-yl)-N-(4-isopropylphenyl) piperazine-1-carboxamide]
PAMPA [1]: 316 1 × 10^−6 cm/s

Compound: CCc1ccc(NC(=O)N2CCN(c3ccc(C#N)cn3)CC2)cc1 [Compound 3, 4-(5-cyanopyridin-2-yl)-N-(4-ethylphenyl)piperazine-1-carboxamide]
PANK3 inhibitory activity in words (human PANK3): did not show activity

Compound: CC(C)c1ccc(C(=O)N2CCN(c3ccc(C#N)cn3)CC2)cc1 [Compound 28, 6-(4-(4-isopropylbenzoyl)piperazin-1-yl) nicotinonitrile]
PANK3 inhibitory activity in words (human PANK3): complete loss of activity

Second part, the compound after the results:

PAMPA [1]: 1232 1 × 10^−6 cm/s
Compound: CC(C)(C)c1ccc(NC(=O)N2CCN(c3ccc(C#N)cn3)CC2)cc1 [Compound 1, N-(4-(tert-butyl)phenyl)-4-(5-cyanopyridin-2-yl) piperazine-1-carboxamide]

PANK3 inhibitory activity in words (human PANK3): inactive
Compound: N#Cc1ccc(N2CCN(C(=O)Nc3ccc(C(F)(F)F)cc3)CC2)nc1 [Compound 18, 4-(5-cyanopyridin-2-yl)-N-(4-(trifluoromethyl)phenyl)piperazine-1-carboxamide]

PANK3 inhibitory activity in words (human PANK3): inactive
Compound: N#Cc1ccc(N2CCN(C(=O)Nc3ccc(Br)cc3)CC2)nc1 [Compound 14, N-(4-bromophenyl)-4-(5-cyanopyridin-2-yl)piperazine-1-carboxamide]

PANK3 inhibitory activity in words (human PANK3): loss of activity
Compound: CC(C)c1ccc(C(=O)CN2CCN(c3ccc(C#N)cn3)CC2)cc1 [Compound 32, 6-(4-(2-(4-isopropylphenyl)-2-oxoethyl)piperazin-1-yl)nicotinonitrile]
